According to patent US5066783A, “Antiviral peptides and means for treating herpes infections” (priority 1988, dated 1991):
Where a SMILES comes first, the peptide text is derived from it. Bridges are numbered along the chain shown (N, C = ends). [ ]: non-standard residue; d: D form. The star is where a group is joined. Ileψ(thiazoline)Cys = CC[C@H](C)[C@H](N)C1=N[C@H](C(=O)*)CS1; dOrn = NCCC[C@@H](N)C(=O)O

What was measured:
HSV-2 = HSV-2 replication (virus yield) in serum-starved BHK 21/C13 cells; type: cell-based; details: 1 mM
HSV-1 = details: A. Alarcon et al., Antiviral Research, 4, 231 (1984); cited from earlier work
[1] = target: HSV-2 ribonucleotide reductase (Human herpesvirus 2, UniProt P89462); test: HSV-2 ribonucleotide reductase inhibition; type: biochemical; details: data not shown
Chain of HSV-2 ribonucleotide reductase (P89462 whole entry): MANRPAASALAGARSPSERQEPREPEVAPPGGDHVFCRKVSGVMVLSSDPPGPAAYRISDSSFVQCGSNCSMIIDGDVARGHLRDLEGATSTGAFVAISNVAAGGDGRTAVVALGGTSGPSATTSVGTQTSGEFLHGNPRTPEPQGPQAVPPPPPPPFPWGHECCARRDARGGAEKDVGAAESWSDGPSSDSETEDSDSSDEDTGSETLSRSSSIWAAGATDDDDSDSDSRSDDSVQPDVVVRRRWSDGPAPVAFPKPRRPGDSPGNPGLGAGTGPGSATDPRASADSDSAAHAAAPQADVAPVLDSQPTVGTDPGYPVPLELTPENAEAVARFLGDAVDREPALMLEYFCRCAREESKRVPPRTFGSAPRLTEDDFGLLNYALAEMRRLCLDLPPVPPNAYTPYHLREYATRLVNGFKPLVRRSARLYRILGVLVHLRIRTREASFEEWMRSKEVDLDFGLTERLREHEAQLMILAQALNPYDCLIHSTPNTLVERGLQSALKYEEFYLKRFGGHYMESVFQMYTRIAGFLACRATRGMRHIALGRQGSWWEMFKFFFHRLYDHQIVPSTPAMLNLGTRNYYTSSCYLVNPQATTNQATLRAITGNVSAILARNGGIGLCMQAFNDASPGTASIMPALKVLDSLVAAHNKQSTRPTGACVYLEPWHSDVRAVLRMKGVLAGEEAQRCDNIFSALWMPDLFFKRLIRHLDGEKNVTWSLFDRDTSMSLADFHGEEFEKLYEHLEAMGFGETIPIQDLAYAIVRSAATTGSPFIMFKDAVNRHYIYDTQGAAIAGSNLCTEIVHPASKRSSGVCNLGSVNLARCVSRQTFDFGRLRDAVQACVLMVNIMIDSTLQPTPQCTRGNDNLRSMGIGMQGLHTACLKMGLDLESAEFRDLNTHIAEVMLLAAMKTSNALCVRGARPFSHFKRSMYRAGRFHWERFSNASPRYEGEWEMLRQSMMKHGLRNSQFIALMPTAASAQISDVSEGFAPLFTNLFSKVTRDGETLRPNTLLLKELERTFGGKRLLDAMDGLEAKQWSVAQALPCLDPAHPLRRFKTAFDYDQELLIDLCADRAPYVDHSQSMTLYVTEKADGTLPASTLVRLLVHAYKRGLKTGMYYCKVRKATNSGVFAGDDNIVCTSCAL
Description: The precipitate was removed by centrifugation.

HSV-1 strain MP-12 = test: Guinea pig cutaneous herpes infection model, HSV-1; type: in vivo; details: summary of TABLE III
HSV-2 strain HG-52 = test: Guinea pig cutaneous herpes infection model, HSV-2; type: in vivo; details: summary of TABLE IV
[2] = test system: cellular ribonucleotide reductase from 96-V-2(600) cells; details: up to 1 mM; FIG. 1
[3] = test system: cellular ribonucleotide reductase from BHK21/C13 cells; details: up to 1 mM; data not shown
[4] = target: ribonucleotide reductase from HSV-1 (strain F)-infected BHK-21/C13 cells (Human herpesvirus 1, UniProt P08543); test: HSV-1 ribonucleotide reductase (CDP reductase) inhibition; details: for % CDP REDUCTASE ACTIVITY: 75 μg protein extract
Chain of ribonucleotide reductase from HSV-1 (strain F)-infected BHK-21/C13 cells (P08543 whole entry): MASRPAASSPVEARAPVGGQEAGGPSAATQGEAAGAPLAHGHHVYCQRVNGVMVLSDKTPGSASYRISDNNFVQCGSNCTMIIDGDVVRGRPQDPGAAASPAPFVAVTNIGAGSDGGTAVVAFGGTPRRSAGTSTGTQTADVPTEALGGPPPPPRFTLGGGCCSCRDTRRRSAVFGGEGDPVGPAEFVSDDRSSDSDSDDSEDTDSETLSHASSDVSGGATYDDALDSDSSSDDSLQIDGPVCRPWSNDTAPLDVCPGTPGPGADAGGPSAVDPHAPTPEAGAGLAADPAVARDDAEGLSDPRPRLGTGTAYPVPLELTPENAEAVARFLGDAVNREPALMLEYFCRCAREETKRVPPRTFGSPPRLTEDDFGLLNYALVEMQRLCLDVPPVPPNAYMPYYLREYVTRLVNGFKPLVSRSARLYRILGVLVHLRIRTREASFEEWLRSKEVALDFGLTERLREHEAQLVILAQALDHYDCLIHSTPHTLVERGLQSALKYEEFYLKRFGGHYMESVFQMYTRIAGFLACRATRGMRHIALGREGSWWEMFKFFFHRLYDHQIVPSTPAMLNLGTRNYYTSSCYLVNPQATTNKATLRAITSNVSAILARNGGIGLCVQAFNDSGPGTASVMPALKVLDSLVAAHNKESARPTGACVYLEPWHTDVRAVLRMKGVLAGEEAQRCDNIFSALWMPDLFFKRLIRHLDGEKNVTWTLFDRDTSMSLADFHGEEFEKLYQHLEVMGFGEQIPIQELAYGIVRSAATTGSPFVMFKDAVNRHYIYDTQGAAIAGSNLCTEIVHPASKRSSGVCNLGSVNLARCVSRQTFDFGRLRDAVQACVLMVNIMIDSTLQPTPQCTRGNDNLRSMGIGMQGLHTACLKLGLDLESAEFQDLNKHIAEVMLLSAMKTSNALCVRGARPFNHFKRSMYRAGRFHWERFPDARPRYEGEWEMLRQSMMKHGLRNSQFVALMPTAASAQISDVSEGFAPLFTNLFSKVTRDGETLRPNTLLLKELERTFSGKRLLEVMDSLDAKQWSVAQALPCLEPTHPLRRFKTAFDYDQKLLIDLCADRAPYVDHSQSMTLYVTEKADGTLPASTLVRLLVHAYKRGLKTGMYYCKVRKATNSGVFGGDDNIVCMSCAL

[5] = test system: HSV-1 ribonucleotide reductase; test: Neutralization of HSV-1 ribonucleotide reductase by anti-nonapeptide IgG, preadsorbed with nonapeptide; details: FIG. 2
[6] = 4 hours post infection, A (after absorption)
[7] = 4 hours post infection, B (before absorption)
[8] = 12 hours post infection, A (after absorption)
[9] = 12 hours post infection, B (before absorption)
[10] = 24 hours post infection, A (after absorption)
[11] = 24 hours post infection, B (before absorption)
[12] = 36 hours post infection, A (after absorption)
[13] = 36 hours post infection, B (before absorption)

| Compound | virus titer (HSV-2; [6]) | virus titer (HSV-2; [7]) | virus titer (HSV-2; [8]) | virus titer (HSV-2; [9]) | virus titer (HSV-2; [10]) | virus titer (HSV-2; [11]) | virus titer (HSV-2; [12]) | virus titer (HSV-2; [13]) | further results |
| --- | --- | --- | --- | --- | --- | --- | --- | --- | --- |
| CC[C@H](C)[C@H](N)C1=N[C@H](C(=O)N[C@@H](CC(C)C)C(=O)N[C@H](CCC(=O)O)C(=O)N[C@H](C(=O)N[C@H]2CCCCNC(=O)[C@H](CC(N)=O)NC(=O)[C@@H](CC(=O)O)NC(=O)[C@H](Cc3cnc[nH]3)NC(=O)[C@@H](Cc3ccccc3)NC(=O)[C@H]([C@@H](C)CC)NC(=O)[C@@H](CCCN)NC2=O)[C@@H](C)CC)CS1 [Bacitracin, bacitracin, reference compound] ({Ileψ(thiazoline)Cys}-L[dE]IK[dOrn]I[dF]H[dD]N; lactam 4-C) | 0.0005 PFU/cell | 0.0007 PFU/cell | 0.007 PFU/cell | 0.005 PFU/cell | 0.06 PFU/cell | 0.06 PFU/cell | 0.06 PFU/cell | 0.03 PFU/cell | activity against HSV-1 when used alone (HSV-1): inactive |
| CC(C)C[C@H](NC(=O)[C@H](CC(=O)O)NC(=O)[C@H](CC(N)=O)NC(=O)[C@@H](NC(=O)[C@@H](NC(=O)[C@H](C)NC(=O)CNC(=O)[C@H](C)NC(=O)[C@@H](N)Cc1ccc(O)cc1)C(C)C)C(C)C)C(=O)O [HSV 7-15, L-tyrosyl-L-alanyl-glycyl-L-alanyl-L-valyl-L-valyl-L-asparagyl-L-aspartyl- L-leucine] | 0.001 PFU/cell | 0.0006 PFU/cell | 0.01 PFU/cell | 0.006 PFU/cell | 0.5 PFU/cell | 0.4 PFU/cell | 1.1 PFU/cell | 0.8 PFU/cell | inhibition curve for the HSV-2 enzyme compared with HSV-1 [1]: nearly identical; shortening the healing time and diminishing the symptoms of HSV-1 infection (HSV-1 strain MP-12): effective; shortening healing time and alleviating the symptoms of HSV-2 (HSV-2 strain HG-52): effective; sensitivity of cellular enzyme to the peptide [2]: completely insensitive; sensitivity of cellular enzyme to the peptide [3]: completely insensitive; % CDP REDUCTASE ACTIVITY ([4]; 10 μM peptide): 96%; % CDP REDUCTASE ACTIVITY ([4]; 25 μM peptide): 94%; % CDP REDUCTASE ACTIVITY ([4]; 50 μM peptide): 80%; % CDP REDUCTASE ACTIVITY ([4]; 100 μM peptide): 45%; % CDP REDUCTASE ACTIVITY ([4]; 400 μM peptide): 9%; concentration giving total inhibition ([4]; FIG. 1, 50 μg viral enzyme): 400 µM; nonapeptide concentration at which equivalence was reached (IgG neutralizing capacity eliminated) [5]: 10 µM |
